These results are taken from ChEMBL document CHEMBL1145452, “In vitro structure-activity relationship and in vivo characterization of 1-(aryl)-3-(4-(amino)benzyl)urea transient receptor potential vanilloid 1 antagonists” (J Med Chem, 2007).

Converted amounts (≈) assume the structure as drawn. A value given as a limit tells only on which side of the number the result lay.

Series [1] concerns the target Transient receptor potential cation channel subfamily V member 1 (Homo sapiens, UniProt Q8NER1). Put plainly: Antagonist activity at human TRPV1 receptor by calcium influx assay. It counts as functional.
Series [2] in a line: Plasma clearance in rat at 10 umol/kg. The series is classed as ADME, organism-based.
The subject of series [3] is Liver microsomes. Put plainly: Stability in rat liver microsomes at 0.5 uM after 30 mins. The series is classed as ADME, Microsome. To be noted: 0.5 h.
The test system of another series is Rattus norvegicus. The series can be described thus: Effect on CFA-induced thermal hyperalgesia in po dosed rat. The series is classed as functional.
The test system of series [4] is Liver microsomes. Put plainly: Stability in human liver microsomes at 0.5 uM after 30 mins. The series is classed as ADME, Microsome. Particulars: 0.5 h. (Liver microsomes are vesicles of endoplasmic reticulum, rich in cytochrome P450 enzymes.)
The nature of series [5]: Volume of distribution in rat at 10 umol/kg. Particulars: in vivo, read-out: Vbeta. The series is classed as ADME, organism-based.
Series [6] can be described thus: Oral bioavailability in rat at 10 umol/kg, po. It counts as ADME, organism-based. Particulars: in vivo.
Series [7] is described as follows: Half life in rat at 10 umol/kg. It counts as ADME, organism-based. To be noted: in vivo.
Series [8] is described as follows: Oral bioavailability in dog. It counts as ADME, organism-based, Canis lupus familiaris. Particulars: in vivo.
A short description of series [9]: Cmax in rat at 10 umol/kg, po. The series is classed as ADME, organism-based. Details: dose 10 umol/kg, route oral. Particulars: in vivo.
For a further series, the target named is Translocator protein (Homo sapiens, UniProt P30536). Put plainly: Binding affinity to peripheral benzodiazepine receptor.
The nature of series [10]: Protein binding in rat plasma. It counts as ADME, cell-free. To be noted: read-out: PPB (converted).
Series [11] is described as follows: Aqueous solubility at pH 2.0. It counts as physicochemical.
Another series is filed under the species Homo sapiens. Put plainly: Protein binding in human plasma. Particulars: read-out: PPB (converted).
A short description of series [12]: Binding affinity to sodium channel. Also noted: species or system Homo sapiens.
Series [13] can be described thus: Aqueous solubility at pH 6.8. It counts as physicochemical. Particulars: buffer.
The next series has as its target T1, Adenosine receptor A3 (Homo sapiens, UniProt P0DMS8).
T1 sequence (P0DMS8 whole entry): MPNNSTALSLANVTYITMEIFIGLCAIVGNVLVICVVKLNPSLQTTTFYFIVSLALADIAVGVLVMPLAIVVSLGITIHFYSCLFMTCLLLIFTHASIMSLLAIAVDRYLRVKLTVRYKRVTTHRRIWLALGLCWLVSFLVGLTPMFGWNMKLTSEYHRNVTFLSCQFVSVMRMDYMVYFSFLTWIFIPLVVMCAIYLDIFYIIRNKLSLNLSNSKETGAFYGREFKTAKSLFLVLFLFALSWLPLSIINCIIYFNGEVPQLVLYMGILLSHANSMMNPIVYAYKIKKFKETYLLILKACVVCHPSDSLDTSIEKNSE
Put plainly: Binding affinity to adenosine A3 receptor.

Chain of Transient receptor potential cation channel subfamily V member 1 (Q8NER1 whole entry): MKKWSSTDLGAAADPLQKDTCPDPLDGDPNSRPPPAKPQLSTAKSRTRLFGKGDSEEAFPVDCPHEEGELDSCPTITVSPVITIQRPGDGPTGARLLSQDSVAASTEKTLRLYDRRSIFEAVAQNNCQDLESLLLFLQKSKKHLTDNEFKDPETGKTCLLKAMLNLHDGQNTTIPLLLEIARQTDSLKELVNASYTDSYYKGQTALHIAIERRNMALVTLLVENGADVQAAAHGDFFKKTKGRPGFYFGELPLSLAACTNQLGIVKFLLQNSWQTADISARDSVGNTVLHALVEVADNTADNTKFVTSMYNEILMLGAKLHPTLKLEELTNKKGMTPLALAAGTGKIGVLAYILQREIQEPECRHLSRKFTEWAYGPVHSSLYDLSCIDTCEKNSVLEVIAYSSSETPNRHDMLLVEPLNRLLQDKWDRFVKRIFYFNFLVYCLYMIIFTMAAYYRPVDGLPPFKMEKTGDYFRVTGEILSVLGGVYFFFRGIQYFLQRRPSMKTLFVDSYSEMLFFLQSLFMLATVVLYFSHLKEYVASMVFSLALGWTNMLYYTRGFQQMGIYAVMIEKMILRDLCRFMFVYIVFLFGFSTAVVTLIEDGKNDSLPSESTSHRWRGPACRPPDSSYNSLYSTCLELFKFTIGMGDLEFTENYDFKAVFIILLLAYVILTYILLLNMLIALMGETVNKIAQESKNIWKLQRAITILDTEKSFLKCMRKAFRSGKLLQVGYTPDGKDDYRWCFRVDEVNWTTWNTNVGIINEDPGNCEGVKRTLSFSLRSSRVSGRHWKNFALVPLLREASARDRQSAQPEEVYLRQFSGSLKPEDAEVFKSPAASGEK
Chain of Translocator protein (P30536 whole entry): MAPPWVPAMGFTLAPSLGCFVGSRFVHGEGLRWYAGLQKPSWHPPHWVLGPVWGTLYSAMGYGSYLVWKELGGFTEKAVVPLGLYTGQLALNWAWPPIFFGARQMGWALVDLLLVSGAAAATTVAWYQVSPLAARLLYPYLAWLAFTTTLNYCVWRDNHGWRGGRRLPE

A word on the IC50: it is the midpoint of a concentration-inhibition curve. On to `O=C(NCc1ccc(N2CCOCC2)cc1)Nc1cccc2cnc(Cl)cc12`, for which the IC50 in series [1] worked out at 156 nM. With `O=C1C[C@H]2CC[C@@H](C1)N2c1cc(F)c(CNC(=O)Nc2cccc3[nH]ncc23)cc1F`, the IC50 in series [1] was 157 nM. On the same count and under the same terms, the figure for `O=C(NCc1cc(F)c(N2CCCCCC2)c(F)c1)Nc1cccc2[nH]ncc12` is 39.3 nM. `O=C(NCc1cc(F)c(N2[C@@H]3CCC[C@H]2CC3)c(F)c1)Nc1cccc2[nH]ncc12`: the IC50 in series [1] worked out at 12.6 nM. For `CC1CCN(c2ccc(CNC(=O)Nc3cccc4cnccc34)cc2)CC1`, the IC50 in series [1] was determined as 9.3 nM. Same read-out and setting: to `Cn1c2ccccc2c2cc(CNC(=O)Nc3cccc4[nH]ncc34)ccc21` belongs 902 nM; to `O=C(NCc1ccc(N2CCCCCC2)cc1Cl)Nc1cccc2[nH]ncc12`, 190 nM; to `O=C(NCc1ccc(N2CCCCCC2)cc1)Nc1cccc2cnccc12`, 3.3 nM. The same measure, in the same setting: the figure for `Cn1ncc2c(NC(=O)NCc3ccc(N4[C@@H]5CCC[C@H]4CC5)cc3Cc3ccccc3)cccc21` is 19 nM. Same read-out and setting: the figure for `O=C(NCc1ccc(N2CCCCCC2)c(F)c1)Nc1cccc2[nH]ncc12` is 14.2 nM; for `O=C(NCc1ccc(N2CCCCCC2)cc1C(F)(F)F)Nc1cccc2[nH]ncc12` it is 133 nM. Consider `Cc1cc2c(NC(=O)NCc3ccc(N4CCCCCC4)cc3)cccc2cn1`, for which the IC50 in [1] came out at 3.8 nM.

The clearance is the volume of plasma or blood freed of the substance per unit of time. In general, ED50 refers to the midpoint of the dose-response relation. The term bioavailability denotes the share of a dose that reaches the circulation, judged against a reference dose that is usually intravenous. Read a high bioavailability as good availability. As usually defined, the half-life is the time in which the quantity being followed falls by half. The low end stands for fast loss, the high end for slow loss. For orientation: Cmax means the highest concentration seen after dosing. `O=C(NCc1ccc(N2CCCCCC2)c(F)c1)Nc1cccc2cnccc12` showed a clearance in series [2] of 30 mL/min/kg. Moreover, the Stability in the series with Liver microsomes [3] was found to be 366 pmol/min/mg; in the series on Liver microsomes [4], 1223 pmol/min/mg. For the same compound, it took a dose of 30 µmol/kg to reach the 50% effect level in the series with Rattus norvegicus (ED50). In addition, in series [1], the IC50 was found to be 2.8 nM. In addition, the Vd in [5] is 1.8 L/kg. The bioavailability in [6] came out at 10%; in series [8], 18%. Moreover, the half-life in series [7] is 0.69 h. The Cmax in [9] was found to be 150 ng/mL.

As for `O=C(NCc1ccc(N2[C@@H]3CCC[C@H]2CC3)c(F)c1F)Nc1cccc2[nH]ncc12`, the IC50 in [1] worked out at 25.5 nM. Still for that read-out and setting: to `CN(C)c1ccc(CNC(=O)Nc2cccc3cnccc23)cc1` belongs 157 nM. On the same count and under the same terms, to `CC(C)c1cc(N2[C@@H]3CCC[C@H]2CC3)ccc1CNC(=O)Nc1cccc2[nH]ncc12` belongs 35.3 nM.

The solubility is the concentration that dissolves in the medium under given conditions. A higher solubility goes with much dissolved substance. On to `O=C(NCc1ccc(N2[C@@H]3CCC[C@H]2CC3)c(C(F)(F)F)c1)Nc1cccc2[nH]ncc12`, for which the IC50 at Translocator protein is above 5000 nM; in series [1], 26.9 nM; in series [12], above 5000 nM; on Adenosine receptor A3, above 5000 nM. Besides, the fraction unbound in series [10] is 0.014; in the series filed under Homo sapiens, 0.03. Moreover, the clearance in series [2] was 16.7 mL/min/kg. Further, the Stability in the series on Liver microsomes [3] is recorded as 315 pmol/min/mg; in the series with Liver microsomes [4], 445 pmol/min/mg. Further, the solubility in series [11] is 14 µg/mL (≈ 31.6 µM); in series [13], below 0.001 µg/mL. It took a dose of 20 µmol/kg to reach the 50% effect level with Rattus norvegicus (ED50). The Vd in series [5] is 2.1 L/kg. The bioavailability in [6] was found to be 21%; in series [8], 46%. This compound also gave a half-life in series [7] of 1.4 h. This compound also displayed a Cmax in series [9] of 240 ng/mL. With `Cc1cc2c(NC(=O)NCc3ccc(N4Cc5ccccc5C4)c(F)c3)cccc2cn1`, in series [1], the IC50 came to 7360 nM. Turning to `O=C(NCc1ccc(C(F)(F)F)cc1)Nc1cccc2cnccc12`, the Stability with Liver microsomes [3] is 383 pmol/min/mg; with Liver microsomes [4], 135 pmol/min/mg. Besides, the IC50 in series [1] was found to be 2.1 nM. Turning to `Cc1cc(N2[C@@H]3CCC[C@H]2CC3)ccc1CNC(=O)Nc1cccc2[nH]ncc12`, the IC50 in series [1] was 29 nM. For the compound `O=C(NCc1ccc(N2CCCCCCC2)cc1)Nc1cccc2cnccc12`, the half-inhibitory concentration (IC50) in series [1] amounted to 4.7 nM. Take `O=C(NCc1ccc(N2CCOCC2)cc1)Nc1cccc2cnccc12`: the IC50 in [1] worked out at 91 nM. Consider `CC(C)(C)CCc1cc(N2[C@@H]3CCC[C@H]2CC3)ccc1CNC(=O)Nc1cccc2[nH]ncc12`, for which the IC50 in series [1] came to 10.3 nM. Regarding `O=C(NCc1ccc(N2CCCCCC2)cc1Cl)Nc1cccc2cnccc12`, in series [1], the half-inhibitory concentration (IC50) amounted to 5.2 nM. Still for that read-out and setting: to `Cc1cc(CNC(=O)Nc2cccc3[nH]ncc23)ccc1N1[C@@H]2CCC[C@H]1CC2` belongs 19.8 nM; to `O=C(NCc1ccc(N2[C@@H]3CCC[C@H]2CC3)cc1C(F)(F)F)Nc1cccc2[nH]ncc12`, 54.5 nM; to `O=C(NCc1cc(F)c(N2[C@@H]3CC[C@H]2CC2(C3)OCCO2)cc1F)Nc1cccc2[nH]ncc12`, 82 nM. Consider `O=C(NCc1ccc(N2CCCCC2)cc1)Nc1cccc2cnccc12`, for which the IC50 in [1] stood at 7.3 nM. `CC1CN(c2ccc(CNC(=O)Nc3cccc4cnccc34)cc2)CC(C)O1` (stereo not drawn): in series [1], the IC50 came out at 258 nM.

Turning to `Nc1cc2c(NC(=O)NCc3ccc(N4CCCCCC4)cc3)cccc2cn1`, the IC50 in series [1] came to 9.8 nM. On to `O=C(NCc1ccc(N2CCCCCC2)cc1C(F)(F)F)Nc1cccc2cnccc12`, for which the IC50 in [1] was 5.7 nM.

As for `O=C(NCc1ccc(N2[C@@H]3CCC[C@H]2CC3)c(Br)c1)Nc1cccc2[nH]ncc12`, the IC50 in [1] came to 43.2 nM. Still for that read-out and setting: to `O=C(NCc1cc(F)c(N2CCOCC2)c(F)c1)Nc1cccc2cnccc12` belongs 9.3 nM; to `O=C(NCc1ccc(N2[C@@H]3CCC[C@H]2CC3)cc1Cl)Nc1cccc2[nH]ncc12`, 58.8 nM. Take `O=C(NCc1ccc(N2[C@@H]3CCC[C@H]2CC3)c(F)c1)Nc1cccc2[nH]ncc12`: the Stability with Liver microsomes [3] was found to be 394 pmol/min/mg; in the series on Liver microsomes [4], 516 pmol/min/mg. Moreover, the IC50 in series [1] is 14.8 nM. As to `O=C(NCc1ccc(N2[C@@H]3CCC[C@H]2CC3)cc1)Nc1cccc2cnccc12`, the Stability was found to be 247 pmol/min/mg in the series with Liver microsomes [3] and 818 pmol/min/mg with Liver microsomes [4]. Further, in series [1], the IC50 was 3.3 nM.

In the case of `O=C(NCc1ccc(N2[C@@H]3CCC[C@H]2CC3)c(Cl)c1)Nc1cccc2[nH]ncc12`, the IC50 in series [1] was determined as 20.4 nM. As to `O=C(NCc1ccc(N2CCCCCC2)c(C(F)(F)F)c1)Nc1cccc2cnccc12`, the figures for the Stability in the series with Liver microsomes [3] and in the series on Liver microsomes [4] were 689 pmol/min/mg and 643 pmol/min/mg, respectively. Also, the IC50 in [1] worked out at 4.6 nM. `O=C(NCc1ccc(N2[C@@H]3CCC[C@H]2CC3)cc1)Nc1cccc2[nH]ncc12`: the IC50 in series [1] was 18 nM. On the same count and under the same terms, to `CCN1CCc2cc(CNC(=O)Nc3cccc4[nH]ncc34)ccc21` belongs 285 nM.
